# Laboratory results as given in ChEMBL document CHEMBL1201862, “PubChem BioAssay data set” (2004).
#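 48-hour exposure; five concentrations; linearly interpolated endpoints. GI50 = concentration required for 50% inhibition of growth.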 The source made the active and inactive calls. Cut-off read from the data, not from the text of the source: active = GI50 up to about 1.1 µM and inactive = higher. Residues, ends and D or L forms follow the SMILES beside them. *: point of attachment. Boc = CC(C)(C)OC(=O)*; OBn = c1ccc(CO*)cc1; Bn = c1ccc(C*)cc1
# Assays:
# Assay in all cases: DTP human tumour cell line panel, 48 h
# [1] = system: HT-29
# [2] = system: RPMI-8226
# [3] = system: M14
# [4] = system: UO-31
# [5] = system: HOP-62
# [6] = system: SK-OV-3
# [7] = system: OVCAR-4
# [8] = system: T47D
# [9] = system: A498
# [10] = system: IGROV-1
# [11] = system: HCC 2998
# [12] = system: OVCAR-3
# [13] = system: MOLT-4
# [14] = system: SR
# [15] = system: UACC-62
# [16] = system: 786-0
# [17] = system: SW-620
# [18] = system: CAKI-1
# [19] = system: ACHN
# [20] = system: NCI-H460
SMILES,GI50 [1],GI50 [2],GI50 [3],GI50 [4],GI50 [5],GI50 [6],GI50 [7],GI50 [8],GI50 [9],GI50 [10],GI50 [11],GI50 [12],GI50 [13],GI50 [14],GI50 [15],GI50 [16],GI50 [17],GI50 [18],GI50 [19],GI50 [20]
COc1cc(C2c3cc4c(cc3OC(C)(N3CCCC3)C2C)OCO4)cc(OC)c1OC (stereo not given),0.293 µM (active),0.337 µM (active),0.242 µM (active),1.26 µM (inactive),0.301 µM (active),0.391 µM (active),9.48 µM (inactive),74.5 µM (inactive),0.302 µM (active),0.435 µM (active),0.389 µM (active),0.203 µM (active),0.3 µM (active),0.0931 µM (active),0.373 µM (active),0.428 µM (active),0.153 µM (active),1.09 µM (active),0.815 µM (active),0.473 µM (active)
CC(=O)CC[N+](C)(C)C,32.7 µM (inactive),5.94 µM (inactive),23 µM (inactive),42 µM (inactive),> 100 µM (inactive),26.7 µM (inactive),14.8 µM (inactive),29.2 µM (inactive),69.2 µM (inactive),37.3 µM (inactive),52.5 µM (inactive),37.3 µM (inactive),6.15 µM (inactive),7.85 µM (inactive),26.8 µM (inactive),23.6 µM (inactive),4.06 µM (inactive),1.9 µM (inactive),17 µM (inactive),65.8 µM (inactive)
CCCCCCCCCc1c(Cl)nc(Cl)nc1Cl,17.5 µM (inactive),14.6 µM (inactive),3.48 µM (inactive),18.3 µM (inactive),22.5 µM (inactive),20.4 µM (inactive),15 µM (inactive),10.1 µM (inactive),19.6 µM (inactive),13.2 µM (inactive),3.74 µM (inactive),17.9 µM (inactive),1.96 µM (inactive),2.84 µM (inactive),20 µM (inactive),13.9 µM (inactive),10.1 µM (inactive),4.78 µM (inactive),19.5 µM (inactive),18.2 µM (inactive)
COc1cc(OC)c2c(=O)cc(-c3ccccc3F)[nH]c2c1,38.2 µM (inactive),57.8 µM (inactive),39.1 µM (inactive),28.6 µM (inactive),82.6 µM (inactive),91.2 µM (inactive),14.2 µM (inactive),95.1 µM (inactive),48.2 µM (inactive),37.5 µM (inactive),18.6 µM (inactive),57 µM (inactive),66.2 µM (inactive),60.8 µM (inactive),52.8 µM (inactive),47.9 µM (inactive),59.3 µM (inactive),61.5 µM (inactive),> 100 µM (inactive),37.9 µM (inactive)
Cc1cc(=O)oc2cc3oc(N(C)c4ccccc4)nc(=O)c3cc12,> 100 µM (inactive),> 100 µM (inactive),> 100 µM (inactive),> 100 µM (inactive),> 100 µM (inactive),> 100 µM (inactive),> 100 µM (inactive),> 100 µM (inactive),> 100 µM (inactive),> 100 µM (inactive),> 100 µM (inactive),> 100 µM (inactive),> 100 µM (inactive),82.2 µM (inactive),> 100 µM (inactive),> 100 µM (inactive),> 100 µM (inactive),> 100 µM (inactive),> 100 µM (inactive),> 100 µM (inactive)
CCN(CC)CCNc1ccc2ncn3c4ccc(OC)cc4c(=O)c1c23,1.28 µM (inactive),1.21 µM (inactive),5.21 µM (inactive),1.82 µM (inactive),5.21 µM (inactive),7.71 µM (inactive),1.74 µM (inactive),20 µM (inactive),6.7 µM (inactive),4.35 µM (inactive),2.78 µM (inactive),7.78 µM (inactive),0.31 µM (active),1.85 µM (inactive),16 µM (inactive),2.22 µM (inactive),1.36 µM (inactive),5.65 µM (inactive),1.05 µM (active),0.646 µM (active)
CCOc1cc(/C=N/c2ccc(Oc3ccc(Cl)cc3)c(Cl)c2)ccc1O,20.8 µM (inactive),29.7 µM (inactive),29.8 µM (inactive),11.8 µM (inactive),23.1 µM (inactive),26.1 µM (inactive),34 µM (inactive),36.3 µM (inactive),12.4 µM (inactive),19.1 µM (inactive),19.3 µM (inactive),29.6 µM (inactive),18.7 µM (inactive),33.2 µM (inactive),27.7 µM (inactive),17 µM (inactive),29.6 µM (inactive),19.8 µM (inactive),32.4 µM (inactive),18.6 µM (inactive)
CCC/C=C/C=C/C(=O)OC1C(C)C2(O)C3C=C(C)C(=O)C3CC(COC(C)=O)=CC2C2C(C)(C)C12OC(=O)C(C)C (stereo not given),12.1 µM (inactive),11.8 µM (inactive),14.1 µM (inactive),15.4 µM (inactive),0.0438 µM (active),53.1 µM (inactive),22.9 µM (inactive),18.5 µM (inactive),1.66 µM (inactive),16.8 µM (inactive),0.329 µM (active),17.1 µM (inactive),0.966 µM (active),10.7 µM (inactive),11.2 µM (inactive),9.62 µM (inactive),0.622 µM (active),0.83 µM (active),9.46 µM (inactive),3.08 µM (inactive)
CC(C)CC(NC(=O)C(Cc1ccccc1)NC(=O)C(COCc1ccccc1)NC(=O)OC(C)(C)C)C(=O)OCc1ccccc1 (stereo not drawn) (Boc-Ser(Bn)-Phe-Leu-OBn; configuration not given here),15.9 µM (inactive),6.95 µM (inactive),37.1 µM (inactive),39.5 µM (inactive),49.4 µM (inactive),36.4 µM (inactive),42.7 µM (inactive),> 100 µM (inactive),95.9 µM (inactive),17.4 µM (inactive),14.7 µM (inactive),20 µM (inactive),13.9 µM (inactive),20.2 µM (inactive),17.5 µM (inactive),17.1 µM (inactive),22.1 µM (inactive),30 µM (inactive),17.9 µM (inactive),11.9 µM (inactive)
